In this assay the target is HIV-1 RT (Human immunodeficiency virus type 1 group M subtype B, UniProt P04585). Kind of assay: in vitro anti-HIV activity: inhibition of HIV-1 RT. The format is biochemical. Conditions: for activity against HIV-1 RT (result in words) / IC50: in vitro; for activity against HIV-1 RT (result in words): same biological target as the IC50 values.

Take `C=C1CCC[C@H]2[C@](CO)(Cc3cc(C(=O)OC)c(O)c(OC)c3O)[C@@H](C)CC[C@]12C` [Compound 1, 19-hydroxy-polyfibrospongol B]: the “activity against HIV-1 RT (result in words)” value is “inactive”.
On the same count and under the same terms, to `C=C1CCC[C@H]2[C@](CO)(Cc3cc(C(=O)OC)cc(OC)c3O)[C@@H](C)CC[C@]12C` [Compound 2, polyfibrospongol B] belongs “inactive”.
Compound `C=C1CCC[C@H]2[C@](C)(CC3=C(O)C(=O)C=C(OC)C3=O)[C@@H](C)CC[C@]12C` [Compound 3, isosemnonorthoquinone] had a 50% inhibitory concentration (IC50) of 240 µM.
`C=C1CCC[C@H]2[C@](C)(CC3=C(O)C(=O)C=C(N)C3=O)[C@@H](C)CC[C@]12C` [Compound 5, smenospongine] had an IC50 of 176 µM.
Turning to `C=C1CCC[C@H]2[C@](C)(CC(=O)C3=C(OC)C(O)OC3=O)[C@@H](C)CC[C@]12C` (stereo partly drawn) [Compound 6, smenotronic acid], the 50% inhibitory concentration (IC50) came out at 130 µM.
Consider `O=C(O)P(=O)(O)O` [PFA, reference compound], for which the “inhibition ratio of HIV-1 RT” value (at 0.05 µM, positive control) is 85%.

The values above are taken from PMC6245356, “A New Sesquiterpenoid Hydroquinone from the Marine Sponge Dysidea arenaria” (Molecules, 2008).
